Laboratory results as given in US8586747B2, “3,3-dimethyl tetrahydroquinoline derivatives” (Hoffmann-La Roche Inc., priority 2010, dated 2013).

These molecules were tested on AMP-activated protein kinase (AMPK) (assay: ADP Quest assay for AMPK activators). Settings: fold of AMPK activation to phosphorylate SAMS peptide without and with an activator at the concentration of 30 µM.
Assay type: biochemical
Set-up: key: fold AMPK activation with vs without activator at 30 µM
Description: ADP Quest™ Assay for AMPK Activators
This method evaluates AMP-activated protein kinase (AMPK) activity through detecting the accumulation of ADP product using an ADP Quest kit and determining the E30 values of the small molecular AMPK activators. ADP Quest kit (DiscoveRx, Fremont, Calif.) is stored at −20° C. before use. Before an experiment, thaw the kit (include assay buffer, ADP standard solution, reagent A and reagent B) and equilibrate to room temperature. Dispense the ADP Quest reagents into single-use aliquots and store at −20° C. The compound concentrations typically range from 0 µM to 100 µM by 2-fold dilution. AMP concentrations range from […] to 1 mM as the reference control. In an assay, thaw and equilibrate the assay buffer, reagent A and reagent B to room temperature for 30 minutes prior to use. Mix ATP, SAMS peptide substrate and compound, and place them into the 384-well assay plate. Add reagent A and B based on the assay kit protocol. Incubate the assay plate at room temperature for 30 minutes after addition the mixture followed by the addition of AMPK protein (Invitrogen, CA) to initiate the AMPK phosphorylation reaction. At the same time, reactions with AMPK activator AMP in the absence of enzyme is included as blank control. The reaction fluorescence signal is monitored and recorded on Envision in kinetic mode with the excitation wavelength of 530 nm and emission wavelength of 590 nm. The E30 value, defined as the fold of AMPK activation to phosphorylate SAMS peptide without and with an activator at the concentration of 30 µM, is calculated and analyzed using Prism 5.0.

Structure (SMILES) | E30
CC1(C)Cc2cc(C(=O)NS(C)(=O)=O)ccc2NC1c1cc(F)cc(N2CCCC2)c1 (stereo not shown) [Example 61, N-[2-(3-Fluoro-5-pyrrolidin-1-yl-phenyl)-3,3-dimethyl-1,2,3,4-tetrahydro-quinoline-6-carbonyl]-methanesulfonamide] | 1.61
CC1(C)Cc2cc(C(=O)NS(=O)(=O)C3CC3)ccc2NC1c1cc(F)cc(N2CCCC2)c1 (stereo not shown) [Example 62, Cyclopropanesulfonic acid [2-(3-fluoro-5-pyrrolidin-1-yl-phenyl)-3,3-dimethyl-1,2,3,4-tetrahydro-quinoline-6-carbonyl]-amide] | 1.61
Cc1cc(C2Nc3ccc(C(=O)O)cc3CC2(C)C)cc(N2CCOCC2)c1 (stereo not shown) [Example 63, 3,3-Dimethyl-2-(3-methyl-5-morpholin-4-yl-phenyl)-1,2,3,4-tetrahydro-quinoline-6-carboxylic acid] | 1.56
Cc1cc(C2Nc3ccc(C(=O)NS(=O)(=O)C4CC4)cc3CC2(C)C)cc(N2CCOCC2)c1 (stereo not shown) [Example 64, Cyclopropanesulfonic acid [3,3-dimethyl-2-(3-methyl-5-morpholin-4-yl-phenyl)-1,2,3,4-tetrahydro-quinoline-6-carbonyl]-amide] | 1.48
Cc1cc(C2Nc3ccc(C(=O)NS(C)(=O)=O)cc3CC2(C)C)cc(N2CCOCC2)c1 (stereo not shown) [Example 65, N-[3,3-Dimethyl-2-(3-methyl-5-morpholin-4-yl-phenyl)-1,2,3,4-tetrahydro-quinoline-6-carbonyl]-methanesulfonamide] | 1.46
COc1cc(C2Nc3ccc(C(=O)O)cc3CC2(C)C)cc(N2CCOCC2)c1 (stereo not shown) [Example 66, 2-(3-Methoxy-5-morpholin-4-yl-phenyl)-3,3-dimethyl-1,2,3,4-tetrahydro-quinoline-6-carboxylic acid] | 1.42
COc1cc(C2Nc3ccc(C(=O)NS(=O)(=O)C4CC4)cc3CC2(C)C)cc(N2CCOCC2)c1 (stereo not shown) [Example 67, Cyclopropanesulfonic acid [2-(3-methoxy-5-morpholin-4-yl-phenyl)-3,3-dimethyl-1,2,3,4-tetrahydro-quinoline-6-carbonyl]-amide] | 1.38
COc1cc(C2Nc3ccc(C(=O)NS(C)(=O)=O)cc3CC2(C)C)cc(N2CCOCC2)c1 (stereo not shown) [Example 68, N-[2-(3-Methoxy-5-morpholin-4-yl-phenyl)-3,3-dimethyl-1,2,3,4-tetrahydro-quinoline-6-carbonyl]-methanesulfonamide] | 1.33

Now from value to molecule:

E30 | Structure (SMILES)
1.28 | CC1(C)Cc2cc(C(=O)NS(C)(=O)=O)ccc2NC1c1cc(C#N)cc(N2CCOCC2)c1 (stereo not shown) [Example 69, N-[2-(3-Cyano-5-morpholin-4-yl-phenyl)-3,3-dimethyl-1,2,3,4-tetrahydro-quinoline-6-carbonyl]-methanesulfonamide]
1.23 | CC1(C)Cc2cc(C(=O)NS(=O)(=O)C3CC3)ccc2NC1c1cc(F)cc(C2CCCCC2)c1 (stereo not shown) [Example 70, Cyclopropanesulfonic acid [2-(3-cyclohexyl-5-fluoro-phenyl)-3,3-dimethyl-1,2,3,4-tetrahydro-quinoline-6-carbonyl]-amide]
1.22 | CC1(C)Cc2cc(C(=O)O)ccc2NC1c1cc(F)cc(N2CCNCC2)c1 (stereo not shown) [Example 71, 2-(3-Fluoro-5-piperazin-1-yl-phenyl)-3,3-dimethyl-1,2,3,4-tetrahydro-quinoline-6-carboxylic acid]
1.21 | CC1(C)Cc2cc(C(=O)O)ccc2NC1c1ccc(N2CCOCC2)cc1 (stereo not shown) [Example 72, 3,3-Dimethyl-2-(4-morpholin-4-yl-phenyl)-1,2,3,4-tetrahydro-quinoline-6-carboxylic acid]
1.21 | CC1(C)Cc2cc(C(=O)NS(=O)(=O)C3CC3)ccc2NC1c1ccc(N2CCOCC2)cc1 (stereo not shown) [Example 73, Cyclopropanesulfonic acid [3,3-dimethyl-2-(4-morpholin-4-yl-phenyl)-1,2,3,4-tetrahydro-quinoline-6-carbonyl]-amide]
